Measured values from patent publication US11174253B2, “Compound and pharmaceutical composition containing the same” (ALPHALA CO., LTD., priority 2017, dated 2021).

Experiments:
Type in all cases: cell-based
[1] = tested on: NCI-H460 human lung cancer cell line; assay: MTS cell viability assay (NCI-60 methodology), GI50/LC50, NCI-H460; conditions: 48 h, NCI-H460 cells, 2 days incubation with compound
In short: (§1)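 Cells were plated 24 h before treatment, and a time-zero plate was read by MTS. Five 2-fold dilutions plus DMSO were then added for 48 h, and viability was measured by MTS. GI50 is from [(Ti−Tz)/(C−Tz)]×100=50 and LC50 from [(Ti−Tz)/Tz]×100=−50.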

[2] = tested on: SW480 colon adenocarcinoma cell line; assay: MTS cell viability assay (NCI-60 methodology), GI50/LC50, SW480; conditions: Homo sapiens, 48 h, SW480 cells, 2 days incubation with compound
In short: as §1

[3] = tested on: hepatocellular carcinoma cell line Hep3B; assay: Growth inhibition of Hep3B cells, 48 hr treatment, Hoechst 33342 nucleus count (GE InCell 2200); conditions: Homo sapiens, Table 6, ratio of number of tumor cells treated with 10 μM compound to non-treated cells
In short: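 Compound exposure lasted 48 hr at 37° C, 5% CO2. Surviving nuclei were counted after Hoechst 33342 staining, and survival was expressed as the treated/non-treated cell number ratio, including the ratio at 10 μM compound.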

[4] = tested on: Hep3B hepatocellular carcinoma cell line; assay: MTS cell viability assay (NCI-60 methodology), GI50/LC50, Hep3B; conditions: Homo sapiens, 48 h, Hep3B cells, 2 days incubation with compound
In short: as §1

| Structure (SMILES) | GI50 [1] | LC50 (concentration giving 50% net cell loss versus time zero, NCI-60 definition) [1] | GI50 [2] | LC50 (NCI-60 lethal concentration, 50% net cell loss vs time zero) [2] | viability at 10 µM [3] | GI50 [4] | LC50 [4] |
| --- | --- | --- | --- | --- | --- | --- | --- |
| CC(C)(C)c1ccc(-c2nc(NC(=O)c3ccc([N+](=O)[O-])s3)sc2-c2ccc(Br)cc2)cc1 [Compound 6-53, N-(5-(4-bromophenyl)-4-(4-(tert-butyl)phenyl)thiazol-2-yl)-5-nitrothiophene-2-carboxamide] | 710 nM | 1370 nM | 620 nM | 990 nM | 24% | 540 nM | 620 nM |
| COc1ccc(-c2sc(NC(=O)c3ccc([N+](=O)[O-])s3)nc2-c2ccc(C(C)(C)C)cc2)cc1 [Compound 6-54, N-(4-(4-(tert-butyl)phenyl)-5-(4-methoxyphenyl)thiazol-2-yl)-5-nitrothiophene-2-carboxamide] | 440 nM | 1590 nM | 1380 nM | 2350 nM | 25% | 610 nM | 710 nM |
| CC(C)(C)c1ccc(-c2nc(NC(=O)c3ccc([N+](=O)[O-])s3)sc2-c2ccc(Cl)cc2)cc1 [Compound 6-59, N-(4-(4-(tert-butyl)phenyl)-5-(4-chlorophenyl)thiazol-2-yl)-5-nitrothiophene-2-carboxamide] | 700 nM | 1280 nM | 750 nM | 1620 nM | 27% | 600 nM | 640 nM |
